Assays:
[1] = system: rabbit corneal epithelial cell; assay: Test Example 2: increase in cell number, cultured rabbit corneal epithelial cell, 120 hours (Cell Counting Kit-8); assay type: cell-based; details: no addition group = 100%, average ± standard deviation, N = 5
Procedure: A male rabbit (Japanese white, weight: about 1.5 kg, […] LABES Co., Ltd.) was used. The experimental animal was used according to the International Guiding Principles for Biomedical Research Involving Animals.
A rabbit corneal epithelial cell was prepared using the same process as that of (Test example 1).
As the test substance, the following compounds were used. • PPARδ agonist: L-165041 (Sigma-Aldrich) and GW-501516 (Alexis)
For studying the effect of promoting cell proliferation by each test substance, a culture medium prepared by removing a mouse-derived epithelial growth factor (mEGF) attached to RCGM2, from RCGM2, was used as a basal medium, while as a positive control for confirming the effect of promoting cell proliferation, a medium with an mEGF added thereto (basal medium+10 ng/mL mEGF) was used according to instructions of an RCGM2 preparation protocol.
Collagen treatment of the culture dish was performed using the same process as that of (Test Example1).
In the test, a rabbit corneal epithelial cell which had been cultured to subconfluent in a culture dish having a diameter of 10 cm was used. After the culture medium was removed, the bottom of the culture dish was washed two times using D-PBS, to this was added 1 mL of trypsin-EDTA, this was incubated at 37° C. for 5 minutes and thereby, the cell was peeled from the bottom of the culture dish. After incubation, 9 mL of MEM containing 10% FBS was added to the culture dish to stop the enzymatic reaction, and this was subjected to centrifugation at room temperature and 1,500 rpm for 5 minutes to obtain a corneal epithelial cell layer. To the resulting cell was added an appropriate amount of RCGM2 to a cell concentration of 1×10^5 cells/mL to suspend the cell. Each 64 μL of this cell suspension was dispensed in each well at the cell number per bottom area (0.32 cm^2) of the collagen-treated 96-well culture dish for tissue culture of […]. […] After 24 hours from cell seeding, the culture medium was discarded, and each 100 μL of the following culture media were freshly dispensed into each well of the culture dish. • [1] Only basal medium (no addition group) • [2] Basal medium+mEGF (final concentration: 10 ng/mL; positive control group) • [3] Basal medium+L-165041 (final concentration: 0.1 μM and 1 μM) • [4] Basal medium+GW-501516 (final concentration: 0.01 μM and 0.1 μM)
The culture supernatant of each well was removed every 48 hours from exchange of the culture medium containing a test substance, and each 100 μL of the freshly prepared culture medium was dispensed into each well.

[2] = system: monkey meibomian gland epithelial cell; assay: Test Example 8: increase in number of monkey meibomian gland epithelial cells (Cell Counting Kit-8); assay type: cell-based; details: 3 x 48 hours; for Cell proliferation (%): no addition group = 100%, average ± standard deviation, N = 5
Description: For studying the effect of promoting cell proliferation by each test substance, a culture medium prepared by removing the supplement attached to DK-SFM, from DK-SFM, was used as a basal medium, while as a positive control for confirming the cell proliferation promoting effect, a culture medium with the supplement added thereto (basal medium+supplement) was used according to instructions of an DK-SFM preparation protocol. […] In the test, a monkey meibomian gland epithelial cell which had been cultured to subconfluent, suspended in a cell banker (Nippon Zenyaku Kogyo Co., Ltd.), and cryopreserved in liquid nitrogen was used. The cell which had been cryopreserved was thawed, and transferred to a 50 mL centrifuge tube and a 10-fold amount of DK-SFM was added thereto. […] Each 64 μL of this cell suspension was dispensed into each well so that the cell number per bottom area (0.32 cm^2) of the collagen-treated 96-well culture dish for tissue culture became 4×10^4 cells/cm^2. […] After 48 hours from initial culture medium exchange, the culture medium was exchanged with a freshly prepared culture medium of each of [1] to [4]. Further, after 48 hours therefrom, the culture medium was exchanged again with a freshly prepared culture medium of each of [1] to [4].

In the case of `CCCc1c(OCCCOc2ccc(OCC(=O)O)cc2)ccc(C(C)=O)c1O` [L-165041, (4-(3-(4-acetyl-3-hydroxy-2-propyl)phenoxy)propoxyphenoxy)acetic acid], the “Cell proliferation (%)” value ([1]; 10^−6 M) is reported as 198.6 ± 26.7%, the “Cell proliferation (%)” value ([1]; 10^−7 M) is reported as 242.5 ± 36.2% and the “cell proliferation compared to the no addition group (in words)” value ([2]; 10^−6 M) is reported as “significantly higher than in the no addition group”. The “Cell proliferation (%)” value ([2]; 10^−6 M) was 169.1 ± 19.6% and the “Cell proliferation (%)” value ([2]; 10^−7 M) was 142.9 ± 22.3%.

Source: patent publication US9096538B2, “Pharmaceutical comprising PPAR agonist” (Senju Pharmaceutical Co., Ltd., priority 2005, dated 2015)
